Experimental data as given in the supplement of paper PMC10307832.

Columns and labels:
Assay in all cases: relative viability (nuclei count vs DMSO), 5 days (fraction); higher = more cells survive
4EGI-1 + Trametinib = compound: O=C(O)C(Cc1ccccc1[N+](=O)[O-])=NNc1nc(-c2ccc(Cl)c(Cl)c2)cs1 (mixture of isomers) [4EGI-1] + CC(=O)Nc1cccc(-n2c(=O)n(C3CC3)c(=O)c3c(Nc4ccc(I)cc4F)n(C)c(=O)c(C)c32)c1 [Trametinib] (partner 0.02 µM)
Method in brief: (§1)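 One day after seeding in 1536-well plates, lung cancer cell lines were dosed by pin tool. Dosing was either single-drug or a fixed anchor-drug dose plus five library-drug doses (not always all listed) in √10 steps. After 5 days, nuclei were stained in one fix-and-stain step and counted on 4× images, and relative viability is the nuclei count of treated wells over that of vehicle wells, given as the median of duplicate plates.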

XMD8-85 + Vorinostat = compound: CN1CCN(CC1)C2=CC(=C(C=C2)NC3=NC=C4C(=N3)N(C5=CC=CC=C5C(=O)N4C)C)OC [XMD8-85] + O=C(CCCCCCC(=O)Nc1ccccc1)NO [Vorinostat] (partner 1 µM)
Method in brief: as §1

4EGI-1 + Navitoclax = compound: O=C(O)C(Cc1ccccc1[N+](=O)[O-])=NNc1nc(-c2ccc(Cl)c(Cl)c2)cs1 (mixture of isomers) [4EGI-1] + CC1(C)CCC(c2ccc(Cl)cc2)=C(CN2CCN(c3ccc(C(=O)NS(=O)(=O)c4ccc(N[C@H](CCN5CCOCC5)CSc5ccccc5)c(S(=O)(=O)C(F)(F)F)c4)cc3)CC2)C1 [Navitoclax] (partner 0.5 µM)
Method in brief: as §1

XMD8-85 + Foretinib = compound: CN1CCN(CC1)C2=CC(=C(C=C2)NC3=NC=C4C(=N3)N(C5=CC=CC=C5C(=O)N4C)C)OC [XMD8-85] + COc1cc2c(Oc3ccc(NC(=O)C4(C(=O)Nc5ccc(F)cc5)CC4)cc3F)ccnc2cc1OCCCN1CCOCC1 [Foretinib] (partner 0.25 µM)
Method in brief: as §1

Cell Line	relative viability (4EGI-1 + Trametinib; first compound 0.5 µM)	relative viability (4EGI-1 + Trametinib; first compound 5 µM)	relative viability (4EGI-1 + Trametinib; first compound 15.81 µM)	relative viability (4EGI-1 + Trametinib; first compound 50 µM)	relative viability (XMD8-85 + Vorinostat; first compound 0.08 µM)	relative viability (XMD8-85 + Vorinostat; first compound 0.253 µM)	relative viability (XMD8-85 + Vorinostat; first compound 2.53 µM)	relative viability (XMD8-85 + Vorinostat; first compound 8 µM)	relative viability (4EGI-1 + Navitoclax; first compound 0.5 µM)	relative viability (4EGI-1 + Navitoclax; first compound 5 µM)	relative viability (4EGI-1 + Navitoclax; first compound 15.81 µM)	relative viability (4EGI-1 + Navitoclax; first compound 50 µM)	relative viability (XMD8-85 + Foretinib; first compound 0.08 µM)	relative viability (XMD8-85 + Foretinib; first compound 0.253 µM)	relative viability (XMD8-85 + Foretinib; first compound 0.8 µM)	relative viability (XMD8-85 + Foretinib; first compound 2.53 µM)	relative viability (XMD8-85 + Foretinib; first compound 8 µM)	relative viability (XMD8-85 + Vorinostat; first compound 0.8 µM)	relative viability (4EGI-1 + Navitoclax; first compound 1.581 µM)	relative viability (4EGI-1 + Trametinib; first compound 1.581 µM)
CAL-12T	0.348	0.358	0.281	0.191	0.724	0.861	0.602	0.534	1.1	1.17	1.23	0.861	1.18	1.17	1.24	1.06	0.346			
A-427	0.891	0.774	0.742	0.384	0.89	0.866	0.865	0.659	0.998	0.815	0.687	0.928	1.22	1.03	1.12	0.889	0.828	0.911	0.823	
LCLC-97TM1	0.212	0.188	0.197	0.127	0.786	0.823	0.784	0.259	0.57	0.408	0.374	0.267	0.934	0.95	0.959	1.01	1	0.915		
LK-2	0.841	0.944	0.75	0.609	0.25	0.421	0.264	0.206	1.18	1.16	1.14	0.877		1.05	1.01	0.554	0.389	0.271		0.529
SK-MES-1	0.582	0.568	0.541	0.418	0.761	1.27	1.03	0.474	1.18	1.19	1.01	0.949	0.888	0.712	0.875	1	0.57	1.05	1.27	0.559
LU99A	0.516	0.583	0.538	0.307	0.363	0.518		0.428	0.765	0.87	0.986	0.428	0.768		0.761	0.854	0.597	0.506		0.436
NCI-H1993	0.654	0.504	0.607	0.432	0.559	0.783	0.825	0.766	0.952	0.77	0.7	0.483	0.742	0.894	0.806	0.706	0.61	0.839	0.895	0.49
NCI-H441	0.613	0.449	0.428	0.127	0.72	0.666	1.02	0.698	0.467	0.449	0.511	0.203	1.11	0.971	1.15	1.13	0.644	0.859	0.552	0.471
NCI-H1666	0.914	0.811	0.774	0.66	1.13	1.03	0.947	0.92	1.14	1.31	0.833	0.248	0.991	0.988	0.963	0.893	0.886	0.996	1.05	0.822
NCI-H2023	0.865	0.593	0.214	0.0814	0.405	0.835	0.665	0.475	1	0.989	0.626	0.175	0.865	0.804	0.961	0.699	0.391			
NCI-H322M	0.525	0.476	0.514	0.452	0.832	0.815	0.779	0.606	1.21	1.16	1.17	1.41	0.733	0.856	1.01	0.8	0.631	0.885	1.18	
NCI-H838	0.694	0.512	0.506	0.141	0.729	0.739	0.641	0.409	1.24	1.26	1.04	0.218	0.941	1	1.08	0.91	0.569	0.706		0.483
ChaGo-K-1	0.911	0.896	0.942	0.592	0.751	0.782	0.81	0.619	0.775	1.1	0.773	0.247	0.823	1.01	0.93	0.867	0.774	0.76		0.845
